According to ChEMBL document CHEMBL1201862, “PubChem BioAssay data set” (2004):
The source made the active and inactive calls.

Experiments:
[1] = Dose-response inhibition of insulin secretion in a rat insulinoma line at 5 mM glucose (AID 1117331); type: functional, cell-based; conditions: INS-1E
[2] = target: Paired box protein Pax-8 (Homo sapiens, UniProt Q06710); assay: inhibitors of PAX8-driven TPO luciferase reporter, dose response, RMG-I cells, cherry-pick (AID 687027); type: functional, cell-based;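 note: luciferase reporter driven by Pax8 target thyroperoxidase promoter measured by SteadyGlo luminescence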
Paired box protein Pax-8, sequence (Q06710 whole entry): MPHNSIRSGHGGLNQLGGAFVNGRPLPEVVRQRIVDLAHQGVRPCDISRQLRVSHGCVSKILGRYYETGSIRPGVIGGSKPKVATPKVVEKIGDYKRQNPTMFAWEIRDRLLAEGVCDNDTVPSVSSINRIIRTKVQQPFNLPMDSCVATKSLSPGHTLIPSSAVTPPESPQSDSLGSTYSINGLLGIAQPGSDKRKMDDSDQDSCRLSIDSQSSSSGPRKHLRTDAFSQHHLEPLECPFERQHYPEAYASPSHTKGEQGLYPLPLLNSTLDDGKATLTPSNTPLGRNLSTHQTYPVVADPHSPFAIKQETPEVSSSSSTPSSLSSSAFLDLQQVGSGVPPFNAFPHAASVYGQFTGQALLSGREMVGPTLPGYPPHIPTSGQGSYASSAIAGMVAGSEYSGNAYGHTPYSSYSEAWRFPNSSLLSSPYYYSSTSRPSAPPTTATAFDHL

[3] = PAX2 cell-based inhibition, dose response, selectivity assay for PAX8 inhibitor project, plate reader, dry powder samples (AID 743048); type: functional;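 note: HEK293 cells carrying a WT1 promoter luciferase reporter driven by expressed Pax2; potency is for inhibition of Pax2 driven reporter signal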
[4] = cytotoxicity dependent on PAX8, dose response, cell-based, plate reader, dry powder (AID 743049); type: functional
[5] = target: NAD-dependent protein deacylase sirtuin-5, mitochondrial (Homo sapiens, UniProt Q9NXA8); assay: SIRT5 desuccinylase inhibitors, dose response, biochemical, fluorescence imaging, cherry-pick, set 5 (AID 720591);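 note: desuccinylation of succinyl peptide AMC substrate read as fluorescence after trypsin release; potency of inhibitors that lower fluorescence and may act on trypsin instead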
NAD-dependent protein deacylase sirtuin-5, mitochondrial, sequence (Q9NXA8 whole entry): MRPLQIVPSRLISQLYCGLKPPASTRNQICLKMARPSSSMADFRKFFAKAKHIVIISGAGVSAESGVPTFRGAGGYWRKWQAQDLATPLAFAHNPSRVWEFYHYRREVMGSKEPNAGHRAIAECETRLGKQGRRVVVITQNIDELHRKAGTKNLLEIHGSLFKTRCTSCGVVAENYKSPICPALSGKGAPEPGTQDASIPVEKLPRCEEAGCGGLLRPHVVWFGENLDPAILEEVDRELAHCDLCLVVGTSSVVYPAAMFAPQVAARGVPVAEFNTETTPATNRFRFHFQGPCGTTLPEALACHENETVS

[6] = test system: HEK293; assay: HEK293T cell cytotoxicity, dose response, cytotoxicity control, ATP luminescence, cherry-pick samples (AID 687005); type: functional, cell-based; conditions: Homo sapiens;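 note: cells exposed to compound for 48 hours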
[7] = HEK293 Cytotoxicity Assay Measured in Cell-Based System Using Plate Reader - 7071-01_Inhibitor_Dose_CherryPick_Activity_Set2.; type: functional
[8] = test system: INS1; assay: beta cell apoptosis inhibitors, cytokine rescue, dose response, luminescence, retest (AID 449756); type: functional, cell-based; conditions: Rattus norvegicus;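 note: cell death triggered by IL-1 beta plus TNF-alpha plus IFN-gamma mixture; protective hits raise ATP signal compared with cytokine alone wells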
[9] = Luminescence Cell-Based Dose Retest to Confirm Inhibitors of Cancer Stem Cells. [Related pubchem assays (depositor defined):AID2717, AID2721]; type: functional; conditions: Homo sapiens
[10] = growth suppression of PTEN-null colon cells, dose response, cell-based, HCT116 PTEN knockout (AID 1047); type: functional;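 note: HCT116 colon tumor cells with PTEN knocked out; cells exposed to compound for 60 hours before readout; potency for loss of cell viability measured by luminescence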
[11] = test system: Streptococcus; assay: Group A Streptococcus viability loss, dose response, counter-screen for streptokinase expression inhibitor project, luminescence, BacTiterGlo (AID 1915); type: functional, organism-based;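 note: potency for reduction of bacterial viability or growth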
[12] = growth suppression of beta-catenin-knockout colon cells, dose response, cell-based, HCT116, human colon tumor (AID 1045); type: functional;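 note: HCT116 colon tumor cells with beta catenin knocked out; cells exposed to compound for 60 hours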
[13] = test system: Streptococcus sp. 'group A'; assay: growth inhibition of control SK(-) GAS strain, dose response, counter-screen for streptokinase expression inhibitor project, luminescence, kanamycin, BacTiterGlo, confirmation (AID 1900); type: functional, organism-based
[14] = target: Disintegrin and metalloproteinase domain-containing protein 17 (Homo sapiens, UniProt P78536); assay: ADAM17 protease inhibitors, dose response, counter-screen for ADAM10 exosite inhibitor project, biochemical, quenched FRET substrate (AID 743253)
Disintegrin and metalloproteinase domain-containing protein 17, sequence (P78536 whole entry, the tested form may be a part): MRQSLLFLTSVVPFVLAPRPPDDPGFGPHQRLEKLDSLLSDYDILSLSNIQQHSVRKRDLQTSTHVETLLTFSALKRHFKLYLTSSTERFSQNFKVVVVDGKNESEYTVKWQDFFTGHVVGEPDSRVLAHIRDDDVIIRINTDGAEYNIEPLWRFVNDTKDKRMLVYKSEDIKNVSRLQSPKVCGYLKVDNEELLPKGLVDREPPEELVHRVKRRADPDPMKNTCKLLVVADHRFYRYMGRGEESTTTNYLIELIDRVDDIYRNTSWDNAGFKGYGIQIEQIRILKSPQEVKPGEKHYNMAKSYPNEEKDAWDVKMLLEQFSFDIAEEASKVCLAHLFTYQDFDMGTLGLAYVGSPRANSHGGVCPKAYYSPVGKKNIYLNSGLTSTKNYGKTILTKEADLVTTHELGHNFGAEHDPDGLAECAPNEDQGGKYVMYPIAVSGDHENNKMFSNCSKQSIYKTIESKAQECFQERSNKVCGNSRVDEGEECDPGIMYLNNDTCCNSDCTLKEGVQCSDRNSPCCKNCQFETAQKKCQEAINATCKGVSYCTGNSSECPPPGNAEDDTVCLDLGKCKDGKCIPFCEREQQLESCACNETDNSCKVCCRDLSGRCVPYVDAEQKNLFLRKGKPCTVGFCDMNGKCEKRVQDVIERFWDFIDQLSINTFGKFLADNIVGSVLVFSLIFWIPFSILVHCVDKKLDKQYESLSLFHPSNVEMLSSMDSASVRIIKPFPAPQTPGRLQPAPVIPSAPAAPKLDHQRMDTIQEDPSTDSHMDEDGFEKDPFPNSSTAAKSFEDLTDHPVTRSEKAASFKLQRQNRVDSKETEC

[15] = target: T1, Streptokinase A (Streptococcus pyogenes serotype M1, UniProt P10520); assay: S. pyogenes streptokinase expression inhibitors, potency, dose response, plasminogen activation absorbance, OD405 (AID 1914); type: functional, Streptococcus pyogenes M1 GAS;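 note: secreted streptokinase activity via plasminogen activation per viability signal from cell pellet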
T1 sequence (P10520 whole entry): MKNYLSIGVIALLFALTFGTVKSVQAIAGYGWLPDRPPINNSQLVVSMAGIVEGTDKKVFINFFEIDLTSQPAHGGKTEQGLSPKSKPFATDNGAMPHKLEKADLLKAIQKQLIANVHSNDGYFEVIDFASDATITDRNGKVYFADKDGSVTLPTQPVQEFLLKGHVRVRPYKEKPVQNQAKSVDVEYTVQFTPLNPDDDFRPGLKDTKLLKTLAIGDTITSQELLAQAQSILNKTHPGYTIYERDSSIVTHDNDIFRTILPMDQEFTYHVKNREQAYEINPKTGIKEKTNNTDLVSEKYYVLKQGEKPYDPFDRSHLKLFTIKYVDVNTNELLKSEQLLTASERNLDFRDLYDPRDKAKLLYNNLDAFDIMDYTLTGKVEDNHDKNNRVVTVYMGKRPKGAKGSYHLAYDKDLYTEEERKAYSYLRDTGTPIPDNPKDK

[16] = YAP1 pathway inhibition via CTGF transcript levels, dose response, cell-based, DLD1 colon cancer, RT-qPCR, cherry-pick (AID 1053122); type: functional; conditions: Cancer cell lines
[17] = CTGF mRNA reduction under YAP1 overexpression, dose response, mechanism study for YAP1 pathway inhibitor project, DLD1 cells, RT-qPCR, cherry-pick (AID 1053127); type: functional, cell-based; conditions: DLD-1
[18] = P. falciparum Dd2 growth inhibitors, dose response, SYBR Green, cherry-picked samples (AID 1159567); type: functional, cell-based
[19] = inhibitors of HIV Env-driven cell fusion, dose response, cherry-pick (AID 652057); type: functional, cell-based
[20] = HepG2 cell cytotoxicity, dose response, cytotoxicity control, cherry-picked samples (AID 1159577); type: functional, cell-based
[21] = Glucagon-like peptide 1 release potency, NCI-H716 cell line, dose-response, half-maximal inhibitory concentration (AID 1117344); type: functional, cell-based
[22] = half-maximal inhibitory concentration for glucagon-like peptide-1 release, STC-1 cell line, dose-response (AID 1117345); type: functional, cell-based
[23] = test system: H9c2; assay: cells; type: functional, cell-based; conditions: Rattus norvegicus, H9c2, Myocardium;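 note: confirmatory concentration-response retest of ultra-high-throughput screening hits for modulation of myocardial damage; cell death induced by hydrogen peroxide oxidative stress; compound pretreatment for 60 min then peroxide exposure for 2 h; potency is for protecting the cells against peroxide damage rather than for killing them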
[24] = P. falciparum ATP4 D1247Y mutant growth inhibitors, dose response, NITD609-resistant line, SYBR Green, dry powder (AID 1159571); type: functional, cell-based;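 note: parasites synchronized at ring stage by sorbitol before testing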
[25] = P. falciparum Dd2 growth inhibitors, dose response, SYBR Green, dry powder samples (AID 1159566); type: functional, cell-based;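 note: potency for growth inhibition with lower SYBR green DNA signal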
[26] = HepG2 cell cytotoxicity, dose response, cytotoxicity control, plate reader, dry powder samples (AID 1159569); type: functional, cell-based;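 note: inhibitor potency with signal falling toward the positive control level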
[27] = Plasmodium falciparum Dd2 Sybr green parasite growth Measured in Cell-Based and Microorganism Combination System Using Plate Reader - 2153-01_Inhibitor_Dose_DryPowder_Activity_Set3.; type: functional
[28] = P. falciparum 3D7-ScDHODH growth inhibitors, dose response, SYBR Green, dry powder samples (AID 1159570); type: functional, cell-based;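 note: parasite growth measured after 72 hours of compound exposure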

## COc1ccc(CN(CCN(C)C)c2ccccn2)cc1 [PYRILAMINE]
[1]
  IC50: 15.4 µM (inactive)

## C[C@H](CO)N1C[C@H](C)[C@H](CN(C)C(=O)Nc2ccc(-c3cccs3)cc2)OCc2cnnn2CCCC1=O
[2]
  AC50: < 0.26 µM (active)
[3]
  AC50: > 70 µM (inactive)
[4]
  AC50: 11.5 µM (active)

## COc1ccc(C(=O)NCC(=O)OCc2ccccc2F)cc1
[5]
  AC50: > 30 µM (inactive)

## C[C@H]1CCCCO[C@H](CN(C)S(=O)(=O)c2ccc(Cl)cc2)[C@@H](C)CN([C@@H](C)CO)C(=O)c2cc(NS(=O)(=O)c3cccs3)ccc2O1
[6]
  AC50: 15.6 µM (active)
[7]
  AC50: 15.6 µM (active)

## Cc1ccc(NS(=O)(=O)c2ccc(Cl)c(NC(=S)NC(=O)C3CCCCC3)c2)cc1Cl
[8]
  AC50: 10.2 µM (active)
[9]
  AC50: 3.05 µM (active)
[10]
  EC50: 19.8 µM (active)
[11]
  EC50: 4.65 µM (active)
[12]
  EC50: 20.8 µM (active)
[13]
  EC50: 0.756 µM (active)
[14]
  IC50: > 69.5 µM (inactive)
[15]
  EC50: 2.48 µM (active)

## COc1ccccc1NC(=O)N1CCCCN2[C@H](CO)[C@H](c3ccc(-c4cccc(C#N)c4)cc3)[C@@H]2C1
[16]
  AC50: 1.44 µM (active)
[17]
  AC50: 11.6 µM (active)

## CCNC(=O)c1cc2c(c(-c3cccc(-c4ccccc4F)c3)n1)[C@@H](CCO)N(C(=O)CC1CC1)C2
[18]
  AC50: 5.87 µM (active)
[17]
  AC50: 11 µM (active)

## O=C(CN(c1ccc(F)cc1)S(=O)(=O)c1ccccc1)NC1CCCCCC1
[6]
  AC50: 33.4 µM (active)
[7]
  AC50: 33.4 µM (active)

## COc1ccc2c3c(n(C)c2c1)[C@@H](CO)N(C(=O)C1CCOCC1)CC31CCN(Cc2cccc(F)c2)CC1
[19]
  AC50: 0.629 µM (active)
[18]
  AC50: 6.52 µM (active)
[20]
  AC50: 10.8 µM (active)

## CN[C@@H]1[C@H](O)[C@H](NC)[C@H]2O[C@@]3(O)C(=O)C[C@@H](C)O[C@H]3O[C@@H]2[C@H]1O
[21]
  IC50: > 40 µM (inactive)
[22]
  IC50: > 40 µM (inactive)

## O=C(Nc1ccc(F)cc1)N1C[C@H]2[C@@H](c3ccccc31)[C@H](CO)N2C(=O)c1ccccc1F
[18]
  AC50: 4.75 µM (active)
[20]
  AC50: > 39 µM (inactive)

## COc1ccc(S(=O)(=O)N2CCOCC2)cc1NC(=O)c1cccc2c(=O)c(C)c(-c3ccccc3)oc12
[5]
  AC50: > 30 µM (inactive)
[23]
  IC50: > 79 µM (inactive)

## COc1ccccc1C#Cc1ccc([C@H]2[C@@H](CO)N(C(=O)C3CC3)[C@H]2C#N)cc1
[24]
  AC50: 1.09 µM (active)
[25]
  AC50: 0.457 µM (active)
[26]
  AC50: > 100 µM (inactive)
[27]
  AC50: 2.28 µM (active)
[28]
  AC50: 2.22 µM (active)

## N#C[C@@H]1[C@H](c2ccc(-c3cccc(F)c3)cc2)[C@@H](CO)N1C(=O)NC1CCCC1
[24]
  AC50: 0.239 µM (active)
[18]
  AC50: 0.483 µM (active)
[25]
  AC50: 0.117 µM (active)
[26]
  AC50: > 100 µM (inactive)
[27]
  AC50: 0.326 µM (active)
[28]
  AC50: 13 µM (active)
